Assays:
TYK2 = biological target: T1, TYK2 (Homo sapiens, UniProt P29597); experiment: Kinobeads assay, TYK2 (competition binding in mixed Molt4/Ramos cell lysate, dot blot detection)
T1 construct: endogenous in cells; host or cells: mixed Molt4/Ramos cell lysate (1:2)
Description: (§1) The compounds of the present invention as described in the previous examples were tested in a Kinobeads™ assay as described for ZAP-70 (WO-A 2007/137867). Briefly, test compounds (at various concentrations) and the affinity matrix with the immobilized aminopyrido-pyrimidine ligand 24 were added to cell lysate aliquots and allowed to bind to the proteins in the lysate sample. After the incubation time the beads with captured proteins were separated from the lysate. Bound proteins were then eluted and the presence of TYK2 and JAK2 was detected and quantified using specific antibodies in a dot blot procedure and the Odyssey infrared detection system. Dose response curves for individual kinases were generated and IC50 values calculated. Kinobeads™ assays have been previously described (WO-A 2007/137867; WO-A 2006/134056).
(§2) The affinity matrix was washed two times with 15 mL of 1×DP buffer containing 0.2% NP40 (IGEPAL® CA-630, Sigma, #13021) and then resuspended in 1×DP buffer containing 0.2% NP40 (3% beads slurry).
(§3) 5×DP buffer: 250 mM Tris-HCl pH 7.4, 25% Glycerol, 7.5 mM MgCl2, 750 mM NaCl, 5 mM Na3VO4; filter the 5×DP buffer through a 0.22 μm filter and store in aliquots at −80° C. The 5×DP buffer is diluted with H2O to 1×DP buffer containing 1 mM DTT and 25 mM NaF.
(§4) Stock solutions of test compounds were prepared in DMSO. In a 96 well plate 30 μL solution of diluted test compounds at 5 mM in DMSO were prepared. Starting with this solution a 1:3 dilution series (9 steps) was prepared. For control experiments (no test compound) a buffer containing 2% DMSO was used.
(§5) Molt4 cells (ATCC catalogue number CRL-1582) and Ramos cells (ATCC catalogue number CRL-1596) were grown in 1 L Spinner flasks (Integra Biosciences, #182101) in suspension in RPMI 1640 medium (Invitrogen, #21875-034) supplemented with 10% Fetal Bovine Serum (Invitrogen) at a density between 0.15×10^6 and 1.2×10^6 cells/mL. Cells were harvested by centrifugation, washed once with 1×PBS buffer (Invitrogen, #14190-094) and cell pellets were frozen in liquid nitrogen and subsequently stored at −80° C. Cells were homogenized in a Potter S homogenizer in lysis buffer: 50 mM Tris-HCl, 0.8% NP40, 5% glycerol, 150 mM NaCl, 1.5 mM MgCl2, 25 mM NaF, 1 mM sodium vanadate, 1 mM DTT, pH 7.5. One complete EDTA-free tablet (protease inhibitor cocktail, Roche Diagnostics, 1873580) per 25 mL buffer was added. The material was dounced 10 times using a mechanized POTTER S, transferred to 50 mL falcon tubes, incubated for 30 minutes on ice and spun down for 10 minutes at 20,000 g at 4° C. (10,000 rpm in Sorvall SLA600, precooled). The supernatant was transferred to an ultracentrifuge (UZ)-polycarbonate tube (Beckmann, 355654) and spun for 1 hour at 100.000 g at 4° C. (33.500 rpm in Ti50.2, precooled). The supernatant was transferred again to a fresh 50 mL falcon tube, the protein concentration was determined by a Bradford assay (BioRad) and samples containing 50 mg of protein per aliquot were prepared. The samples were immediately used for experiments or frozen in liquid nitrogen and stored frozen at −80° C.
(§6) Cell lysate (approximately 50 mg protein per plate) was thawed in a water bath at room temperature and then stored on ice. To the thawed cell lysate 1×DP 0.8% NP40 buffer containing protease inhibitors (1 tablet for 25 mL buffer; EDTA-free protease inhibitor cocktail; Roche Diagnostics 1873580) was added in order to reach a final protein concentration of 10 mg/mL total protein. The diluted cell lysate was stored on ice. Mixed Molt4/Ramos lysate was prepared by combining one volume of Molt4 lysate and two volumes of Ramos lysate (ratio 1:2).
(§7) To a 96 well filter plate (Multiscreen HTS, BV Filter Plates, Millipore #MSBVN1250) were
(§8) added per well: 100 μL affinity matrix (3% beads slurry), 3 μL of compound solution, and 50 μL of diluted lysate. Plates were sealed and incubated for 3 hours in a cold room on a plate shaker (Heidolph tiramax 1000) at 750 rpm. […]

JAK2 = biological target: T2, JAK2 (Homo sapiens, UniProt O60674); experiment: Kinobeads assay, JAK2 (competition binding in mixed Molt4/Ramos cell lysate, dot blot detection)
T2 construct: endogenous in cells; host or cells: mixed Molt4/Ramos cell lysate (1:2)
T2 sequence (O60674 whole entry): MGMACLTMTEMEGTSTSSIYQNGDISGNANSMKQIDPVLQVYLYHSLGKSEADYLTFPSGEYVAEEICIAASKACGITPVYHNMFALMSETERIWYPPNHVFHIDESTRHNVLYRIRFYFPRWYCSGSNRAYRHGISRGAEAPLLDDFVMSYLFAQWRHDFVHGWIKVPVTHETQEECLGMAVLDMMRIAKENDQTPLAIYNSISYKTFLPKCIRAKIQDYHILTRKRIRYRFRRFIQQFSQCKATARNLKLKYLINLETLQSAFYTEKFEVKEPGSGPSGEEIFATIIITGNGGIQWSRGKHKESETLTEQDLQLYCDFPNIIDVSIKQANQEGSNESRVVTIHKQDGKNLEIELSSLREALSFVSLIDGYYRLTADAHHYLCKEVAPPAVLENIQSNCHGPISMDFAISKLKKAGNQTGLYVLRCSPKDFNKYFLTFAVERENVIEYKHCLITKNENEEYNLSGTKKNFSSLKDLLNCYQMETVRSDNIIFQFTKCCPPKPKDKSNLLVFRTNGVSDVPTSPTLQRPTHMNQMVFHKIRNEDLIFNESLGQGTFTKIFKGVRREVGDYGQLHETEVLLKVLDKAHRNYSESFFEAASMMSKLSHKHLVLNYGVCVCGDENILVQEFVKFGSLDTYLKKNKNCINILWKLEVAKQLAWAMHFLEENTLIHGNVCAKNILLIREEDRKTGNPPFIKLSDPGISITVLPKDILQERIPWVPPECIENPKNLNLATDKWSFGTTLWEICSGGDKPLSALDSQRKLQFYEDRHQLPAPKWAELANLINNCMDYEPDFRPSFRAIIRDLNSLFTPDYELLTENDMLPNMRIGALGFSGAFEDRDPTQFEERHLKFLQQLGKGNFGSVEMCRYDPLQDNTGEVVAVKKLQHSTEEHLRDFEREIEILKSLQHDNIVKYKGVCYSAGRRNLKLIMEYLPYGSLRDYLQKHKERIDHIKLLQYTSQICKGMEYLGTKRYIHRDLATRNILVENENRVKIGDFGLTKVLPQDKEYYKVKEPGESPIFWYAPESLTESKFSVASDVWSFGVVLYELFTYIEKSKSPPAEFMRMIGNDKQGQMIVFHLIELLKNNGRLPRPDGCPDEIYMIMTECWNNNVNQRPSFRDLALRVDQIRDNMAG
Description: as §1, §2, §3, §4, §5, §6, §7, §8

T1 sequence (P29597 whole entry): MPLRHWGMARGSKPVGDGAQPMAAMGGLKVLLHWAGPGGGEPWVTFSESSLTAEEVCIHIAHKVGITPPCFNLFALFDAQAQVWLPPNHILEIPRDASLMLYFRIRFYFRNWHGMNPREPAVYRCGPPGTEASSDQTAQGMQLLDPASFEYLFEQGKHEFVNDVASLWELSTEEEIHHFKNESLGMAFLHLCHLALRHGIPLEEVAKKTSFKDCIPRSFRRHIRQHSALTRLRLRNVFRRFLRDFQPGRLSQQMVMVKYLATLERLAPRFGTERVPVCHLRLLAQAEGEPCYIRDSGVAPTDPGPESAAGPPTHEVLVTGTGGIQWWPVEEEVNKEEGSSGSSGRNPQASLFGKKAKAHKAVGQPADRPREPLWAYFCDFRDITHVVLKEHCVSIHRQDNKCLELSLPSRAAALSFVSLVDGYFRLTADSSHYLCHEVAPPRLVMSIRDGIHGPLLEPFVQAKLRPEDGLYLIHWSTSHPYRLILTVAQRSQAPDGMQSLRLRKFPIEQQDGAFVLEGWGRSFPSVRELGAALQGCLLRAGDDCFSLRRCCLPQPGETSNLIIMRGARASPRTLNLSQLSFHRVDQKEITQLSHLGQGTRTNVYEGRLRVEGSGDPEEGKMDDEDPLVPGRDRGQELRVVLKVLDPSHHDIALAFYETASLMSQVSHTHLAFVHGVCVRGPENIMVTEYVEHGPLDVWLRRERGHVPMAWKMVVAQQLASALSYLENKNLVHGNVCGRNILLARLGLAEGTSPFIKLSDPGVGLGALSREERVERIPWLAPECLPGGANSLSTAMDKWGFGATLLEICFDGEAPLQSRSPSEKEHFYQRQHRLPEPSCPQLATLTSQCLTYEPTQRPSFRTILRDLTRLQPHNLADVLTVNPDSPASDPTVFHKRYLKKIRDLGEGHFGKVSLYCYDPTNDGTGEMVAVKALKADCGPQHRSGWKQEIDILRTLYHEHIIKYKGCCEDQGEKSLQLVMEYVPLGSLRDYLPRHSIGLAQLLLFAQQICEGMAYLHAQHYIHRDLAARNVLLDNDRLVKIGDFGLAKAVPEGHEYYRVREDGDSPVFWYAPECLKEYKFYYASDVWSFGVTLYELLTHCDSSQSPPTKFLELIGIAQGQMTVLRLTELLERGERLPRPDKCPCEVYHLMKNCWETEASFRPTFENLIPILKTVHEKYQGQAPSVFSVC

Structure (SMILES) | IC50 (TYK2) [nM] | IC50 (JAK2) [nM]
O=C(Nc1nc2cccc(-c3ccc(Cl)cc3Cl)n2n1)C1CC1 [Example 2, N-(5-(2,4-dichlorophenyl)-[1,2,4]triazolo[1,5-a]pyridin-2-yl)cyclopropanecarboxamide] | 100 to 1000 | > 10000
COc1ccc(-c2cccc3nc(NC(=O)C4CC4)nn23)c(Cl)c1 [Example 4, N-(5-(2-chloro-4-methoxyphenyl)-[1,2,4]triazolo[1,5-a]pyridin-2-yl)cyclopropanecarboxamide] | 100 to 1000 | > 10000
Nc1ccc(-c2cccc3nc(NC(=O)C4CC4)nn23)c(Cl)c1 [Example 6, N-(5-(4-amino-2-chlorophenyl)-[1,2,4]triazolo[1,5-a]pyridin-2-yl)cyclopropanecarboxamide] | 100 to 1000 | > 10000
Nc1ccc(-c2cccc3nc(NC(=O)C4CC4)nn23)c(F)c1 [Example 7, N-(5-(4-amino-2-fluorophenyl)-[1,2,4]triazolo[1,5-a]pyridin-2-yl)cyclopropanecarboxamide] | 100 to 1000 | > 10000
COc1ccc(-c2cccc3nc(NC(=O)C4CC4)nn23)c(C(F)(F)F)c1 [Example 3, N-(5-(4-methoxy-2-(trifluoromethyl)phenyl)-[1,2,4]triazolo[1,5-a]pyridin-2-yl)cyclopropanecarboxamide] | 1000 to 10000 | > 10000
COc1ccc(-c2cccc3nc(NC(=O)C4CC4)nn23)c(F)c1 [Example 1, N-(5-(2-fluoro-4-methoxyphenyl)-[1,2,4]triazolo[1,5-a]pyridin-2-yl)cyclopropane carboxamide] | 100 to 1000 | > 10000
CS(=O)(=O)Nc1ccc(-c2cccc3nc(NC(=O)C4CC4)nn23)c(F)c1 [Example 9, N-(5-(2-fluoro-4-(methylsulfonamido)phenyl)-[1,2,4]triazolo[1,5-a]pyridin-2-yl)cyclopropanecarboxamide] | 100 to 1000 | > 10000

Continued, values first:

IC50 (TYK2) [nM] | IC50 (JAK2) [nM] | Structure (SMILES)
100 to 1000 | > 10000 | Cc1ccc(-c2cccc3nc(NC(=O)C4CC4)nn23)c(C)c1 [Example 12, N-(5-(2,4-dimethylphenyl)-[1,2,4]triazolo[1,5-a]pyridin-2-yl)cyclopropanecarboxamide]
100 to 1000 | > 10000 | CS(=O)(=O)Nc1ccc(-c2cccc3nc(NC(=O)C4CC4)nn23)c(Cl)c1 [Example 8, N-(5-(2-chloro-4-(methylsulfonamido)phenyl)-[1,2,4]triazolo[1,5-a]pyridin-2-yl)cyclopropanecarboxamide]
100 to 1000 | > 10000 | COc1ccc(-c2cccc3nc(NC(=O)C4CC4)nn23)c(C)c1 [Example 10, N-(5-(4-methoxy-2-methylphenyl)-[1,2,4]triazolo[1,5-a]pyridin-2-yl)cyclopropanecarboxamide]
100 to 1000 | > 10000 | CS(=O)(=O)c1ccc(-c2cccc3nc(NC(=O)C4CC4)nn23)c(F)c1 [Example 5, N-(5-(2-fluoro-4-(methylsulfonyl)phenyl)-[1,2,4]triazolo[1,5-a]pyridin-2-yl)cyclopropanecarboxamide]
< 100 | > 10000 | O=C(Nc1nc2cccc(-c3ccc(NS(=O)(=O)C4CC4)cc3Cl)n2n1)C1CC1 [Example 11]

— US20130143915A1, “TRIAZOLOPYRIDINES AS TYK2 INHIBITORS” (CELLZOME LIMITED, priority 2010, published 2013)
